# Source: a melting point compilation (Tetko et al.; mined from patent text by program, amines drawn as free bases though some values may be those of a salt)
row,SMILES,melting point [°C]
1,CN(C)CCCC(=O)N1CCOc2cc3ncc(C#N)c(Nc4ccc(F)c(Cl)c4)c3cc21,165
2,CCCCCCCCCCCCCCCCOc1ccc(O)cc1,87 to 88
3,CC1Cc2cc3c(cc2C(c2ccc([N+](=O)[O-])cc2)=NN1c1ncon1)OCO3 (centres undefined),190 to 196
4,O=C(CCc1ccccc1)NCC(=O)N1c2ccccc2N(Cc2ccccc2)C(=O)[C@H]2CCC[C@H]21 (relative stereo),205 to 207
5,CCOC(=O)C(C#N)=NOC(=O)OCc1ccccc1,101 to 102
6,CC(C)n1cc(-c2nc(C(=O)O)c(N)nc2-c2ccc(F)cc2)ccc1=O,222
7,O=C1NCCCN1Cc1ccc2ccccc2c1,151 to 155
8,Cc1cccc(C)c1N(CC(=O)NCC(=O)O)C(=O)c1ccc(Cl)cc1,200 to 201
9,O=S(=O)(c1ccc(Br)s1)N(CCO)CCO,70
10,Ic1ccc(CCc2ccc(I)cc2)cc1,150 to 151
11,CCOc1nc(C(F)(F)F)cc(=O)n1-c1cc(OCCON=C(C)C)c(Br)cc1F,131 to 132
12,CC1=C(C(=O)c2ccc(C#N)cc2)C(=O)C2C=CC=CC2C1=O (centres undefined),185 to 186
13,CCCCC[C@H]1CC[C@H](c2ncc([C@H]3CC[C@H](CCC)CC3)cn2)CC1,98
14,CCCOc1ccc(S(=O)(=O)N2CCN(CC)CC2)cc1-c1nc2cc3ncn(Cc4cccc(F)c4)c3cc2c(=O)[nH]1,115 to 117
15,CCCn1c(COC)nc2c(N)nc3ccc(OCCC4CCCN4C)cc3c21 (centres undefined),155 to 157
16,Cc1ccc(Cc2cnc(NCCCNc3ncc(Cl)cc3Cl)[nH]c2=O)cn1,147 to 148
17,CC1(C)Cc2cccc(S(N)(=O)=O)c2O1,160 to 162
18,COc1ccc(CN(C)CCc2ccc(NC(=O)c3cccc4c(=O)c5ccccc5sc34)cc2)cc1OC,180
19,O=c1[nH]c(N2CCOCC2)nc2c1CC(S(=O)(=O)c1ccccc1)CC2 (centres undefined),> 250
20,CN(c1ccc(OC(F)(F)F)cc1)C1CCN(C[C@@]2(C)Cn3cc([N+](=O)[O-])nc3O2)CC1,133 to 134
21,CCCCCCCCCCCCCCCCCCOc1ccc(O)c(C(=O)N(CC(=O)O)CC(=O)O)c1,128 to 132
22,CCNC(=O)Nc1cc(C(C)(C)C)c2c(c1)C(C)(C)CO2,197 to 198
23,COc1ccc2[nH]c3c(c2c1)CCSCCC3,122 to 124
24,Cc1ccc2c3c(c(Cl)nc2c1)C(=O)c1ccccc1-3,208 to 211
25,Cc1cc(C)c2c(n1)CC(c1ccccc1C)CC2=O (centres undefined),106 to 107

row,SMILES,melting point [°C]
1,c1cn2c(n1)-c1sccc1-n1cnc(-c3nc(C4CC4)no3)c1C2,231 to 233
2,COc1cc2ncnc(N3CCN(C(=O)NCc4cccs4)CC3)c2cc1OC,168 to 170
3,CC(=O)Nc1ccc(S(=O)c2ccc(Br)cc2)cc1 (centres undefined),190 to 191
4,COc1cc(OC)c(-c2cc3ccccc3s2)cc1/C=C/C(=O)c1ccc(Nc2c(N)c(=O)c2=O)cc1,> 260
5,Cc1c(C#N)sc2nc(-c3ccncc3)nc(N3CCOCC3)c12,> 250
6,CNC1CN(c2nc3c(cc2F)c(=O)c(C(=O)O)cn3C2CC2)C1,206 to 212
7,CN(C)CCNS(=O)(=O)c1cccc(NC(=O)c2cnn3c(C(F)F)cc(-c4ccc(C(F)(F)F)cc4)nc23)c1,184
8,C=C(CCC(C)C1CCC2(O)C3=C(C(=O)CC12C)C1(C)CCC(=O)C(C)C1CC3O)C(C)C(=O)O (centres undefined),175 to 177
9,COC1=CC23CCN(C)C(Cc4ccc(OC)c(O)c42)C3=CC1C (centres undefined),97 to 100
10,Cc1ccccc1-c1cc(C#N)cc2c1OC(CN)C2 (centres undefined),127 to 129
11,O=C1c2ccccc2C(=O)c2c1cc(CBr)c1c2CCC1,225 to 230
12,O=C1N(Cc2ncccn2)c2ccccc2C12COc1cc3c(cc12)OCCO3 (centres undefined),210 to 212
13,CC(C)(C)OC(=O)NCc1ccc(-c2ccc(O)c(Br)c2)cc1,113 to 117
14,CC#CCOc1ccc(S(=O)(=O)NCCC(=O)OC(C)(C)C)cc1,63 to 65
15,CCc1nc2ccccc2c(N)c1C(C)=O,145 to 148
16,CCN(CC)CC(=O)OC1CC2(C)C(C(C)=O)CCC2C2CCC3CC(O)C(Br)CC3(C)C12 (centres undefined),149 to 150
17,OC(c1ccccc1)(c1ncc[nH]1)c1ccc(Cl)cc1Cl (centres undefined),176 to 177
18,CC(C)OC(=O)N=C1SCS1,72 to 73
19,CCOC(=O)C(C)(C)Oc1cccc2c1CC(O)C(SC)C2 (centres undefined),132 to 134
20,CC(C)CNc1nc(-c2ccccc2)c(Cl)n2c(-c3ccc(C(=O)NC4CC4)cc3)cnc12,180
21,CCOc1cc(OC2CCN(C)CC2)c(F)c([C@H](Nc2ccc(C(=N)N)cc2)C(=O)O)c1,267
22,Cc1ccc(OCC(O)CCCl)cc1 (centres undefined),62 to 64
23,COC(=O)[C@H](C)N(C(=O)[C@H](CC(C)C)NC(=O)OCc1ccccc1)c1ccc(-c2ccccc2)cc1,126 to 127
24,Cc1cc(C#N)c(N)cc1Cl,180
25,O=Cc1ccc(OCCN2C(=O)c3ccccc3C2=O)cc1,138

row,SMILES,melting point [°C]
1,OCc1cc(F)nc(F)c1F,48 to 49
2,CCC(=NO)c1ccncc1,141 to 144
3,COc1ccc(C(=O)NCCCSc2nnnn2C)cc1,118 to 122
4,Cc1ccc(C23CC4CC(C2)CC(c2ccc(C)cc2)(C4)C3)cc1,145 to 146
5,O=CN(O)C(CS(=O)(=O)c1ccc(Oc2ccc(OC(F)(F)F)cc2)cc1)CS(=O)(=O)N1CCCC1 (centres undefined),120 to 123
6,CC[C@@H](O)[C@@H](CCCC(C)=O)OCc1ccccc1,30 to 31
7,CC1(C)Oc2c(c(=O)n(Cc3ccccc3)c3ccccc23)[C@@H](N2CCCC2=O)[C@@H]1O (relative stereo),> 260
8,Cc1nc(-c2ccc(OCC(C)(C)C)c([N+](=O)[O-])c2)sc1C(=O)O,242 to 245
9,C[Si](C)(C)COc1cc([N+](=O)[O-])ccc1N,87
10,N=C(N)c1ccc(-c2cnc(-c3ccc(C(=N)N)cc3)nc2)cc1,> 300
11,CS(=O)c1cc(=O)c2occc2s1 (centres undefined),230 to 232
12,O=C(CCN1CCN(c2cccc3[nH]ccc23)CC1)c1csc2ccc(F)cc12,76 to 78
13,CC(=O)Oc1c2c(c3ccccc3c1OC(C)=O)Nc1ccccc1S2,206 to 207
14,COc1cc(C(C)=O)c(OC)cc1Cl,96
15,CN1C(=O)Nc2c(Cl)cc(Cl)cc2C12NC(=O)NC2=O (centres undefined),> 280
16,CCOC(=O)N1CCC(=C2c3cc(C)ccc3CCn3ccnc32)CC1,156
17,COC(=O)CCc1sc(NC(=O)C[C@H]2O[C@H](c3cccc(OC)c3OC)c3cc(Cl)ccc3N(CC(C)(C)COC(C)=O)C2=O)nc1-c1ccccc1,168
18,Cc1cc(-c2ccc(F)cc2)n(-c2ccc(S(C)(=O)=O)cc2)c1,151 to 154
19,O=C(CCc1ccccc1)N[C@H](Cc1ccc(C(F)(F)F)o1)[C@@H](O)c1ccc(F)cc1 (racemic),91 to 92
20,Cc1ccc(C)c(S(=O)(=O)Nc2onc(C)c2Br)c1,102 to 104
21,CCOC(=O)C1=C(N)NC(N)=C(C(=O)OCC)C1c1ccccc1F,128 to 130
22,N#Cc1ccc(Oc2nc(Nc3cccc(C(=O)O)c3)nc(Oc3ccccc3)n2)cc1,150
23,CC(C)(C)OC(=O)c1ccc(Cl)cn1,86.3 to 88.3
24,CC(=O)C(C)n1nc(C(=O)NC2CN(C)CCN(Cc3ccccc3)C2)c2ccccc21 (centres undefined),97 to 100
25,Cc1nnc2n1-c1sc(Cl)cc1C(c1ccccn1)=NC2,174 to 176

row,SMILES,melting point [°C]
1,C/C(=N/O)[C@@H]1C[C@H](C(=O)OC(C)(C)C)N(C(=O)CNC(=O)Nc2cccc(C)c2)[C@@H]1c1ccccc1 (racemic),166
2,CNC(=O)Cc1cccc(C(=O)c2ccccc2)c1N,145 to 146
3,Cn1c(C(F)(F)F)cc(=O)n(-c2cc(OCC(C)(C)C)c(Cl)cc2F)c1=O,122 to 124
4,CCn1c(=NC(C)=O)c(-c2c(Cl)cccc2Cl)cc2cnc(SC)nc21,175 to 177
5,CCOc1nc(C)nc(N2CCc3ccccc3CC2)c1[N+](=O)[O-],145 to 147
6,[N-]=[N+]=C1C(=O)Nc2c1cccc2C(F)(F)F,173 to 175
7,CC(C)(CO)CCCCC(O)CCCCC(C)(C)CO,72 to 74
8,Cn1ncnc1-n1cc(C(=O)O)c(=O)c2cc(F)c(F)cc21,254 to 264
9,CCn1nc(-c2ccccc2)c(C(C)=O)c(Nc2cnccn2)c1=O,229 to 230
10,O=C(c1ccc(CBr)cc1)c1c(Cl)cccc1Cl,126 to 130
11,CC1(C)CON(Cc2ccc(N3C(=O)c4cccnc4C3=O)cc2Cl)C1=O,139 to 141
12,FC(F)(F)C(F)(F)c1nc(-c2ccc(OCCCn3ccnc3)cc2)no1,60.5 to 61.5
13,CC(=O)NC1(c2ccc(=O)n(C)c2)CCCCC1,194 to 195
14,O=C1NCC=C2N=CN=C12,242 to 245
15,CC(C)(C)c1cc(C(=O)NCCOC(=O)c2cc(C(C)(C)C)c(O)c(C(C)(C)C)c2)cc(C(C)(C)C)c1O,185 to 187
16,Cc1cc(C)cc(NCc2ccc3nc(NCCCN4CCCCC4)n(Cc4nc(C)ccc4O)c3c2)c1,161
17,O=C(NCCc1ccccc1CO)c1ccc([N+](=O)[O-])cc1,137 to 138
18,CC(c1ccc(O)cc1)(c1ccc(O)cc1)c1ccc(C(C)(c2ccc(O)cc2)c2ccc(O)cc2)cc1,307
19,COc1ccc2c(c1)[nH]c1c(C)nc3c(c12)C(=O)CC(C)(C)C3,250 to 252
20,COc1ccc(CN2C(=O)[C@@H](NC(=O)Cc3ccccc3)[C@H]2CI)c(OC)c1 (relative stereo),181 to 182
21,O=c1[nH]nc2c3c(cccc13)N=C(CN1CCCN(Cc3ccc(F)cc3)CC1)N2,163 to 165
22,Cc1nc(O)c([N+](=O)[O-])c(O)n1,> 300
23,COc1cc(OC2OC(CO)C(O)C(O)C2O)ccc1C=Cc1cc(C=Cc2ccc3cc[nH]c3c2)n[nH]1 (centres undefined),194 to 199
24,CCOC(C)=C1SC(=S)N(c2ccc(Cl)cc2)C1=O,168 to 171
